This is an account of results in ChEMBL document CHEMBL1136590, “Synthesis, spectral studies and screening for amoebicidal activity of new palladium(II) complexes derived from thiophene-2-carboxaldehyde thiosemicarbazones” (Bioorg Med Chem Lett, 2003).

In the first test the test system is Entamoeba histolytica. Nature of the test: In vitro amoebicidal activity against HM-1:1MMS strain of Entamoeba histolytica. The class given is functional, organism-based.
Conditions: not given
For “3,4-Dihydro-2H-quinoline-1-carbothioic acid thiophen-2-ylmethylene-hydrazide with PdCl2 complex”, half-maximal inhibition (IC50) required 1.15 µM.
Still for that read-out and setting: in the case of “Di(methylsulfinyl)methane with PdCl2 complex” it was 8.24 µM; in that of “thiophene-2-carbaldehyde N-(2-chlorobenzyl)thiosemicarbazone with PdCl2 complex”, 3.06 µM.
On the same count and under the same terms, as for “thiophene-2-carbaldehyde N-(2,4-difluorophenyl)thiosemicarbazone with PdCl2 complex”, the figure is 2.65 µM; as for “thiophene-2-carbaldehyde N-(2,6-difluorophenyl)thiosemicarbazone with PdCl2 complex”, 2.41 µM.

The test is the same for the next values; noted with them: Entamoeba histolytica.
For `S=C(NCc1ccccc1Cl)N/N=C/c1cccs1`, half-maximal inhibition (IC50) was put at 5.74 µM.
The same measure, in the same setting: as for `Cc1ncc([N+](=O)[O-])n1CCO` [METRONIDAZOLE], the figure is 2.03 µM.
Still for that read-out and setting: in the case of `S=C(N/N=C/c1cccs1)N1CCCC1` it was 3.2 µM; in that of `Fc1ccc(/N=C(\S)N/N=C/c2cccs2)c(F)c1`, 6.18 µM; in that of `Fc1cccc(F)c1/N=C(\S)N/N=C/c1cccs1`, 5.73 µM.
Turning to `S=C(N/N=C/c1cccs1)N1CCCc2ccccc21`, the IC50 – broadly, the point on the concentration scale where inhibition reaches its midpoint – amounted to 2.78 µM.
